Source: ChEMBL document CHEMBL1857833, “Screening and optimization of specific chemical series against human African Trypanosomiasis (HAT)”
In brackets after ≈: the same amount, converted by molar mass.

What was measured:
[1] = (§1) DNDI: Cytotoxicity against L929 mouse fibroblasts, 72 hour.; type: toxicity, cell-based; conditions: mouse, L929 mouse fibroblasts
L929 = experiment: as §1; type: toxicity, cell-based; conditions: l929
Trypanosoma brucei [2] = experiment: DNDI: Inhibition of Human African Trypanosomiasis, SBRI 427, in vitro; type: functional, organism-based
Trypanosoma brucei [3] = experiment: DNDI: Mean survival time in days (MSD) of mice after intraperitoneal injection of Human African Trypanosomiasis (HAT), EATRO 110, in vivo at 50 mg/kg/day for 4 days.; type: functional, Mus musculus
[4] = DNDI: Lipophilicity measured in Chromatographic hydrophobicity index (CHI) assay, pH 7.4; type: physicochemical; conditions: buffer
[5] = DNDI: half-life in mouse S9 microsomes at a concentration of 1uM; type: ADME, subcellular, Liver, S9 fraction
MDR1 (ABCB1) [6] = biological target: T1, MDR1 (ABCB1) (Homo sapiens, UniProt P08183); experiment: DNDI: % of compound recovered from apical to basolateral permeability assay in MDCK cells transfected with human MDR1 after 60 mins at a concentration of 3uM; type: ADME, cell-based, Canis lupus familiaris; conditions: dog
MDR1 (ABCB1) [7] = biological target: T1, MDR1 (ABCB1); experiment: DNDI: Apparent permeability from apical to basolateral side of the MDCK cell transfected with human MDR1after 60 mins at a concentration of 3uM; type: ADME, cell-based, Canis lupus familiaris; conditions: dog, MDCK-MDR1
MDR1 (ABCB1) [8] = biological target: T1, MDR1 (ABCB1); experiment: DNDI: % of compound recovered from membrane of apical to basolateral permeability assay in MDCK cells transfected with human MDR1 after 60 mins at a concentration of 3uM; type: ADME, cell-based, Canis lupus familiaris; conditions: dog, read-out: Mem Rec
MDR1 (ABCB1) [9] = biological target: T1, MDR1 (ABCB1); experiment: DNDI: % of compound recovered from apical to basolateral permeability assay in MDCK cells transfected with human MDR1 after 60 mins at a concentration of 3uM in the presence of GF120918; type: ADME, cell-based, Canis lupus familiaris; conditions: dog, MDCK-MDR1, with GF120918 (concentration not stated)
MDR1 (ABCB1) [10] = biological target: T1, MDR1 (ABCB1); experiment: DNDI: % of compound recovered from membrane of apical to basolateral permeability assay in MDCK cells transfected with human MDR1 after 60 mins at a concentration of 3uM in the presence of GF120918; type: ADME, cell-based, Canis lupus familiaris; conditions: dog, MDCK-MDR1, with GF120918 (concentration not stated); read-out: Mem Rec
MDR1 (ABCB1) [11] = biological target: T1, MDR1 (ABCB1); experiment: DNDI: Efflux ratio for permeability from basolateral to apical side to apical to basolateral side of MDCK cells transfected with human MDR1; type: ADME, cell-based, Canis lupus familiaris; conditions: dog
[12] = DNDI: Solubility in phosphate buffered saline at pH7.4 measured by nephelometry at room temperature (NEPH-RT); type: physicochemical; conditions: pH 7.4
[13] = DNDI: Cytotoxicity against L929 mouse fibroblasts, CYTO-SP, 24 hour; type: toxicity, cell-based; conditions: mouse, L929 mouse fibroblasts
Trypanosoma brucei [14] = experiment: DNDI: Inhibition of Human African Trypanosomiasis, EATRO 110, in vitro; type: functional, organism-based
Trypanosoma brucei [15] = experiment: DNDI: Mean survival time in days (MSD) of mice after intraperitoneal injection of Human African Trypanosomiasis (HAT), EATRO 110, at 0.5 mg/kg/day for 4 days.; type: functional, Mus musculus
Trypanosoma brucei [16] = experiment: DNDI: Mean survival time in days (MSD) of mice after intraperitoneal injection of Human African Trypanosomiasis (HAT), EATRO 110, in vivo at 20 mg/kg/day for 4 days.; type: functional, Mus musculus
Trypanosoma brucei [17] = experiment: DNDI: Mean survival time in days (MSD) of mice after intraperitoneal injection of Human African Trypanosomiasis (HAT), EATRO 110, in vivo at 1.25 mg/kg/day for 4 days.; type: functional, Mus musculus
Trypanosoma brucei [18] = experiment: DNDI: Mean survival time in days (MSD) of mice after intraperitoneal injection of Human African Trypanosomiasis (HAT), EATRO 110, in vivo at 2.5 mg/kg/day for 4 days.; type: functional, Mus musculus
Trypanosoma brucei [19] = experiment: DNDI: Mean survival time in days (MSD) of mice after intraperitoneal injection of Human African Trypanosomiasis (HAT), EATRO 110, in vivo at 12.5 mg/kg/day for 4 days.; type: functional, Mus musculus
Trypanosoma brucei [20] = experiment: DNDI: Mean survival time in days (MSD) of mice after intraperitoneal injection of Human African Trypanosomiasis (HAT), EATRO 110, in vivo at 5 mg/kg/day for 4 days.; type: functional, Mus musculus
[21] = DNDI: in vitro intrinsic clearance in mouse liver microsomes at a concentration of 10uM; type: ADME, Microsome; conditions: read-out: CLint in vitro
[22] = DNDI: half life in mouse liver microsomes at a concentration of 10uM; type: ADME, Microsome
MDR1 (ABCB1) [23] = biological target: T1, MDR1 (ABCB1); experiment: DNDI: % of compound recovered from apical to basolateral permeability assay in MDCK cells transfected with human MDR1; type: ADME, cell-based, Canis lupus familiaris; conditions: dog
MDR1 (ABCB1) [24] = biological target: T1, MDR1 (ABCB1); experiment: DNDI: Apparent permeability from apical to basolateral side of the MDCK cell transfected with human MDR1; type: ADME, cell-based, Canis lupus familiaris; conditions: dog
MDR1 (ABCB1) [25] = biological target: T1, MDR1 (ABCB1); experiment: DNDI: Apparent permeability from basolateral to apical side of the MDCK cell transfected with human MDR1 after 60 mins at a concentration of 3uM; type: ADME, cell-based, Canis lupus familiaris; conditions: dog
MDR1 (ABCB1) [26] = biological target: T1, MDR1 (ABCB1); experiment: DNDI: % of compound recovered from basolateral to apical permeability assay in MDCK cells transfected with human MDR1; type: ADME, cell-based, Canis lupus familiaris; conditions: dog
[27] = DNDI: Solubility in phosphate buffered saline at pH7.4 measured by optical density (turbidimetry) at room temperature (OD-RT); type: physicochemical; conditions: pH 7.4
Trypanosoma brucei [28] = experiment: DNDI: Mean survival time in days (MSD) of mice after intraperitoneal injection of Human African Trypanosomiasis (HAT), STIB 795, in vivo at 50 mg/kg/day for 4 days.; type: functional, Mus musculus
Trypanosoma brucei [29] = experiment: DNDI: Mean survival time in days (MSD) of mice after p.o. administration of Human African Trypanosomiasis (HAT), STIB 795, in vivo at 100 mg/kg/day for 4 days.; type: functional, Mus musculus; conditions: route oral
[30] = mouse, microsomes, 1 µM
Description: DNDI: in vitro intrinsic clearance in mouse liver microsomes at a concentration of 1uM

in vitro = conditions: mouse, liver microsomes, t (1 / 2)
Description: DNDI: half life in mouse liver microsomes at a concentration of 1uM

[31] = DNDI: % of compound remaining in mouse S9 microsomes at a concentration of 1uM after 60 mins; type: ADME, subcellular, Liver, S9 fraction
[32] = DNDI: % of compound remaining in rat S9 microsomes at a concentration of 1uM; type: ADME, subcellular, Liver, S9 fraction
Trypanosoma cruzi = experiment: DNDI: Inhibition of Chagas Disease parasite Trypanosoma cruzi (Tulahuen LacZ, Clone C4), in vitro.; type: functional, organism-based
[33] = DNDI: Cytotoxicity against L-6 rat myoblasts from skeletal muscle cells; type: toxicity, cell-based, L6; conditions: L-6 rat skeletal muscle myoblasts
[34] = test system: Trypanosoma brucei rhodesiense; experiment: DNDI: Inhibition of Human African Trypanosomiasis (HAT), STIB 900, in vitro; type: functional, organism-based
Leishmania donovani = experiment: DNDI: Inhibition of formation of Leishmania donovani (strain MHOM/ET/67/L82) axenic amastigotes, in vitro.; type: functional, organism-based
Plasmodium falciparum = experiment: DNDI: Inhibition of the malaria parasite Plasmodium falciparum, in vitro; type: functional, organism-based; conditions: K1
[35] = DNDI: half life in human liver microsomes at a concentration of 10uM; type: ADME, Microsome
[36] = DNDI: in vitro intrinsic clearance in human liver microsomes at a concentration of 10uM; type: ADME, Microsome
[37] = Trypanosoma brucei, SBRI 427, read-out: IC50

T1 sequence (P08183 whole entry): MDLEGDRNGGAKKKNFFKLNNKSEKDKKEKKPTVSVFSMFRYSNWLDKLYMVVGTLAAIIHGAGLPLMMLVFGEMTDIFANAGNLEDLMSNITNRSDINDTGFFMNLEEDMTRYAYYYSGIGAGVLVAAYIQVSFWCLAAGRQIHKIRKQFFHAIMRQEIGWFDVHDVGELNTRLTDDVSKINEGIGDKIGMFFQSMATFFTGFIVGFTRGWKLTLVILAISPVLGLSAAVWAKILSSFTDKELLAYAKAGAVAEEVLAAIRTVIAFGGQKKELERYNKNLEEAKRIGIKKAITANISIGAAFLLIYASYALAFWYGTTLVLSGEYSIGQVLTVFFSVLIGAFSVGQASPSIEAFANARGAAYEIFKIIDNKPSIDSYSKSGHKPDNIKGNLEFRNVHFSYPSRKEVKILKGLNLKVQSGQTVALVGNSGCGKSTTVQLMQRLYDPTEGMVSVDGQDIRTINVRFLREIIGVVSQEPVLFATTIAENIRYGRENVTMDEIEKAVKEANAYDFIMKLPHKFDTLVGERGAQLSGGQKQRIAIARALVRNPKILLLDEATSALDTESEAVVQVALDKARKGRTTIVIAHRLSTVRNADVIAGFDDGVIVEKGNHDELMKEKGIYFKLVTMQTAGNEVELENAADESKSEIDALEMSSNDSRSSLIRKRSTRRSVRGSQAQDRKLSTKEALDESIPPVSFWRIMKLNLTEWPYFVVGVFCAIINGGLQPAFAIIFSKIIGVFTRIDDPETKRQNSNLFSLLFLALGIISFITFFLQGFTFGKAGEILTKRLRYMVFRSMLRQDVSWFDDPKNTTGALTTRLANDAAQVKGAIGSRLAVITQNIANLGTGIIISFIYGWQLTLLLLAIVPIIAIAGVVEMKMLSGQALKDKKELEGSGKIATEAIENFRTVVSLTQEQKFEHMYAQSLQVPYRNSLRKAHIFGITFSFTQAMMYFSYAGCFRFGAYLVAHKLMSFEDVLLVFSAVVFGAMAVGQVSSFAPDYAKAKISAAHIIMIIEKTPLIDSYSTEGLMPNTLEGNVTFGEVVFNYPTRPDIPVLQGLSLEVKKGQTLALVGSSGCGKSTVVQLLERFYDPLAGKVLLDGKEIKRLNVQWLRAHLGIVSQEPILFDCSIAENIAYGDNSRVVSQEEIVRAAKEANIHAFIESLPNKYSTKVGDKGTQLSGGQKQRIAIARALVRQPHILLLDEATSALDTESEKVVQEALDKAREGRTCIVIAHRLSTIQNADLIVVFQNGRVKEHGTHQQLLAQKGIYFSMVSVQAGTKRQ

Compound	IC50 at 72 h [1] [µg/mL]	IC50 (Trypanosoma brucei [2]; [37]) [µg/mL]	MSD (Trypanosoma brucei [3]) [days]	chromatographic logD [4]	solubility kinetic [12] [µM]	IC50 at 24 h [13] [µg/mL]	MSD (Trypanosoma brucei [15]) [days]	MSD (Trypanosoma brucei [16]) [days]	MSD (Trypanosoma brucei [17]) [days]	MSD (Trypanosoma brucei [18]) [days]	MSD (Trypanosoma brucei [19]) [days]	MSD (Trypanosoma brucei [20]) [days]	microsomal CLint at 10 µM [21] [µL/min/mg]	half-life at 10 µM [22] [min]	solubility kinetic [27] [µM]	MSD (Trypanosoma brucei [28]) [days]	CLint in vitro [30] [µL/min/mg]	half-life at 1 µM (in vitro) [min]	other results
CN1CCCC1CCNCc1coc(-c2ccc(OC3CCCC3)cc2)n1 (centres undefined)	1.33 (≈ 3.6 µM)	0.22 (≈ 0.595 µM)	<1																IC50 (L929): 1.42 µg/mL (≈ 3.84 µM)
CC(C)(C)c1cc(N2CCNCC2)n2nc(-c3ccc(F)cc3)cc2n1	2.75 (≈ 7.78 µM)	1.11 (≈ 3.14 µM)		4.15	50 (≈ 17.7 µg/mL)														half-life at 1 µM [5]: > 350 min; recovery at 1 h, 3 µM (MDR1 (ABCB1) [6]): 103%; Papp A→B at 1 h, 3 µM (MDR1 (ABCB1) [7]): 10.3 ×10⁻⁶ cm/s; recovery at 1 h, 3 µM (MDR1 (ABCB1) [8]): 88.4%; recovery at 1 h, 3 µM (MDR1 (ABCB1) [9]): 91%; recovery at 1 h, 3 µM (MDR1 (ABCB1) [10]): 76.1%; efflux ratio (MDR1 (ABCB1) [11]; MDCK-MDR1, read-out: Calculated Ratio): 0.08
O/N=C(/NC1CCCCC1)c1cccnc1Oc1ccccc1Cl		0.95 (≈ 2.75 µM)		4.52		> 50	4	4	4	4	4	4	211	14	4 (≈ 1.38 µg/mL)				IC50 (Trypanosoma brucei [14]): 1.41 µg/mL (≈ 4.08 µM); recovery (MDR1 (ABCB1) [23]): 58%; Papp A→B (MDR1 (ABCB1) [24]): 30.2 ×10⁻⁶ cm/s; Papp B→A at 1 h, 3 µM (MDR1 (ABCB1) [25]): 34.8 ×10⁻⁶ cm/s; recovery (MDR1 (ABCB1) [26]): 67%; efflux ratio (MDR1 (ABCB1) [11]; read-out: B-A/A-B): 1.2
CCCCc1ccc(-c2nc(CNCCCN(C)C)co2)cc1	1.4 (≈ 4.44 µM)	0.07 (≈ 0.222 µM)		5.07	< 1											7	9	96	MSD (Trypanosoma brucei [29]): 7 days
CCCCc1ccc(-c2nc(CNCCC3CCCN3C)co2)cc1 (centres undefined)	4.21 (≈ 12.3 µM)	0.19 (≈ 0.556 µM)	10	4.69	100 (≈ 34.1 µg/mL)											7	23	37	IC50 (Trypanosoma brucei [2]): 0.21 µg/mL (≈ 0.615 µM); remaining at 1 h, 1 µM [31]: 57.4%; remaining at 1 µM [32]: 3.27%
COc1ccc(/C(=N/O)NC2CCCCC2)cc1	> 10	0.61 (≈ 2.46 µM)		3.82		> 50	4	4.6	4	4	4	4.3	544	5	50 (≈ 12.4 µg/mL)		329	3	IC50 (Trypanosoma cruzi): > 30 µg/mL; IC50 [33]: 58.3 µg/mL (≈ 235 µM); IC50 [34]: 18.3 µg/mL (≈ 73.7 µM); IC50 (Leishmania donovani): 11.9 µg/mL (≈ 48 µM); IC50 (Plasmodium falciparum): 4.7 µg/mL (≈ 18.9 µM); half-life at 10 µM [35]: 76 min; CLint in vitro [36]: 38 µL/min/mg
